Experimental data taken from publication PMC6264278, “Corydaline Inhibits Multiple Cytochrome P450 and UDP-Glucuronosyltransferase Enzyme Activities in Human Liver Microsomes” (Molecules, 2011).

What was measured:
[1] = molecular target: T1, UGT1A9 (Homo sapiens, UniProt O60656); experiment: UGT1A9 propofol glucuronidation inhibition in pooled human liver microsomes; type: in vitro ADME
T1 construct: using pooled human liver microsomes; tissue BD Gentest Co. H161; host or cells: pooled human liver microsomes
T1 sequence (O60656 26-530): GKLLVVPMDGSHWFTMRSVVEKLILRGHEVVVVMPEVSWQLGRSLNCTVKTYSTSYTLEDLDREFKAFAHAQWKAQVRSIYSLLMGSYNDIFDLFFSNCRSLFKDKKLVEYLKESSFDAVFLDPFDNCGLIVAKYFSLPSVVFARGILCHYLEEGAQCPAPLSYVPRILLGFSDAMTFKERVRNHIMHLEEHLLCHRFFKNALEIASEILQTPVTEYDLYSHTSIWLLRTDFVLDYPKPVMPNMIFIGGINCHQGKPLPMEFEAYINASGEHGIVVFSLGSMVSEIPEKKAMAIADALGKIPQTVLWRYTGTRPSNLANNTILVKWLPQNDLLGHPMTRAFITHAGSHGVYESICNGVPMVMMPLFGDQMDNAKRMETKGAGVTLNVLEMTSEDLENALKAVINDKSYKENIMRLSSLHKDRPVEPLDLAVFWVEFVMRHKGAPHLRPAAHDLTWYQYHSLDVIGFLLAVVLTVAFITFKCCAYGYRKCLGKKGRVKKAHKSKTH
Protocol: (§1) The inhibitory potencies (IC50 values) of corydaline were also determined with UGT assays in the presence and absence of corydaline (final concentrations of 1–1,000 μM with acetonitrile concentration less than 0.5% v/v) using pooled human liver microsomes. 17β-Estradiol 3-glucuronidation, trifluoperazine glucuronidation, propofol glucuronidation, and azidothymidine glucuronidation activities were determined as probe activities for UGT1A1, UGT1A4, UGT1A9, and UGT2B7, respectively, using LC/MS/MS. Incubation mixtures were prepared in a total volume of 100 μL, as follows: Pooled human liver microsomes (0.2 mg/mL for 17β-estradiol, trifluoperazine and azidothymidine; 0.1 mg/mL for propofol), 2 mM UDPGA, 25 μg/mL alamethicin, 10 mM MgCl2, 50 mM tris buffer (pH 7.4), UGT-isoform specific probe substrate (20 μM 17β-estradiol for UGT1A1, 5 μM trifluoperazine for UGT1A4, 10 μM propofol for UGT1A9, or 100 μM azidothymidine for UGT2B7), and various concentrations of corydaline (1−1000 μM). Reactions were initiated by addition of UDPGA, and incubations were carried out at 37 °C in a shaking water bath for 30 min. […]
(§2) Glucuronides produced from UGT isoform-specific substrates were respectively determined by LC/MS/MS. […] Quantification was performed by SRM of the [M+H]^+ ion for trifluoperazine glucuronide and azidothymidine glucuronide or [M−H]^− for 17β-estradiol 3-glucuronide and propofol glucuronide and the related product ion for each metabolite.
Reactions were initiated by addition of NADPH at 37 °C and stopped after 15 min by placement of the incubation tubes on ice and addition of ice-cold methanol (100 μL) containing an internal standard (2.0 μg/mL ^13C6-4-hydroxydiclofenac for diclofenac, 0.5 μg/mL d3-4-hydroxymephenytoin for mephenytoin, or 0.5 μg/mL d9-1-hydroxy-bufuralol for bufuralol). The incubation mixtures were centrifuged at 13,000 × g for 5 min, and aliquots (5 μL) of the supernatants were analyzed by LC/MS/MS. […] Aliquots (5 μL) were analyzed by LC/MS/MS. […]

[2] = molecular target: T2, UGT2B7 (Homo sapiens, UniProt P16662); experiment: UGT2B7 azidothymidine glucuronidation inhibition in pooled human liver microsomes; type: in vitro ADME; conditions: pooled human liver microsomes (H161), 100 μM azidothymidine, no inhibition at 1,000 μM of corydaline
T2 construct: using pooled human liver microsomes; tissue BD Gentest Co. H161; host or cells: pooled human liver microsomes
T2 sequence (P16662 24-529): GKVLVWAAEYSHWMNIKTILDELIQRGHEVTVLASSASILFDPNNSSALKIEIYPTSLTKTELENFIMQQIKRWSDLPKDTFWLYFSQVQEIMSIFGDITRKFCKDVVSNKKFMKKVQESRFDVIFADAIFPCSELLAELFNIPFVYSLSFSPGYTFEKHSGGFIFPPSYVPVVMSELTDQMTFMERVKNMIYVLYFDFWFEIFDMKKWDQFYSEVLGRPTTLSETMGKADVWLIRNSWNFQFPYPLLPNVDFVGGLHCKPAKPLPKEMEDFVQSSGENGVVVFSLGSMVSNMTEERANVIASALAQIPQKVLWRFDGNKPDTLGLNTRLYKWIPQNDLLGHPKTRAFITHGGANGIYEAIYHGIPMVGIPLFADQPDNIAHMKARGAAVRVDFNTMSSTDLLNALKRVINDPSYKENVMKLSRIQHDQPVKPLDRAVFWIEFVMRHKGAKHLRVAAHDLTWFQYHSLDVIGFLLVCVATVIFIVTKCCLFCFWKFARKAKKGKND
Protocol: as §1, with “μM).” for “μM). Reactions were initiated by addition of UDPGA, and incubations were carried out at 37 °C in a shaking water bath for 30 min.”
as §2, with “metabolite. […]” for “metabolite.”

- Ki ([1]; human liver microsomes, 10-30 μM propofol): 37.3 ± 14.4 µM
- inhibition mode, UGT1A9 propofol glucuronidation ([1]; mixed competitive-noncompetitive equation, nonlinear regression): competitive
- IC50 ([1]; pooled human liver microsomes (H161), 10 μM propofol, mean ± SD, n = 3): 39.4 ± 6 µM
- IC50, UGT2B7 azidothymidine glucuronidation [2]: not inhibited
- IC50, UGT2B7 azidothymidine glucuronidation ([2]; listed as corydaline): No inhibition *
SMILES: COc1cc2c(cc1OC)C1C(C)c3ccc(OC)c(OC)c3CN1CC2 (centres unmarked) [Corydaline, 2,3,9,10-tetramethoxy-13-methyl-5,8,13,13a-tetrahydro-6H-isoquino[3,2-a]isoquinoline]
